Experiment [1] has as its target Tau-RD3 (Tau repeat domain 3) (Homo sapiens, UniProt P10636). As to the kind of experiment: Tau disaggregation test by Thioflavin-T analysis. In kind it is biochemical. The settings on record: for EC50: Tau-RD3 35 µM aggregated 24 hours, then compound 0 - 500 µM for 48 hours at 37 °C, concentration disaggregating 50 % of aggregates vs control, read-out: EC50 (µM) Tau. As to the method: (§1) Each compound was dissolved in DMSO to a concentration of 10 mM. Then, the compounds were diluted with 6 % DMSO (in DW) for use.
(§2) Amyloid-beta and tau solutions were prepared by dissolving Aβ1-42 or Tau-RD3 (Tau repeat domain 3) monomers in DMSO to a concentration of 10 mM. Then, the solutions were diluted to 100 µM with DW and stored on ice.
(§3) Meanwhile, Thioflavin-T was dissolved in 50 mM glycine buffer (pH 8.5) to a concentration of 5 mM. Then, the solution was diluted to 5 µM with 50 mM glycine buffer (pH 8.5) and stored in the dark, protected from light.
(§4) The amyloid-beta and tau solutions prepared in Example 1.1 were each placed in 1.5 mL microcentrifuge tubes to a concentration of 50 µM or 35 µM, respectively, and then reacted at 37 °C for 24 hours.
(§5) To each 1.5 mL microcentrifuge tube in which the amyloid-beta and tau aggregation was complete, the compounds were added at concentrations ranging from 500 µM down to 0 µM by serial dilution, and then further reacted at 37 °C for 48 hours.
(§6) 25 µL of each completed reaction solution was added to each well of a 96-well fluorescence analysis plate, and 75 µL of the Thioflavin-T solution was added to each well. After reacting for 5 minutes at room temperature in the dark, the fluorescence value was measured at 450 nm (excitation) and 485 nm (emission) using a multi-mode microplate reader.
(§7) The fluorescence value of the group (control group) treated with only amyloid-beta or tau and aggregated for 72 hours was designated as 100 %. The fluorescence values measured after treating the amyloid-beta and tau aggregates (formed by reacting for 24 hours) with each compound by concentration and reacting for an additional 48 hours were converted to relative values.

The target of experiment [2] is T1, Aβ1-42 (Homo sapiens, UniProt P05067).
T1 construct: dissolving Aβ1-42 or Tau-RD3 (Tau repeat domain 3) monomers in DMSO
As to the kind of experiment: Amyloid-beta disaggregation test by Thioflavin-T analysis. In kind it is biochemical. The settings on record: for EC50: Aβ1-42 50 µM aggregated 24 hours, then compound 0 - 500 µM for 48 hours at 37 °C, concentration disaggregating 50 % of aggregates vs control, read-out: EC50 (µM) Aβ. How it is done:
as §1, §2, §3, §4, §5, §6, §7

Where [3] appears, read: statement in words summarising the Thioflavin-T results.

Molecules are shown by their SMILES. Some results are limits rather than exact numbers.

T1 sequence (P05067 672-713 limits assumed): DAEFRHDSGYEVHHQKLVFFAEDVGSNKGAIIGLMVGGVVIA
Sequence of Tau-RD3 (Tau repeat domain 3) (P10636 623-653 limits assumed): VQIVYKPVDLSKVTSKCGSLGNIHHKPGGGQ

On to `Cc1ncsc1C1=C(c2cccnc2)C(=O)c2cc(NCCO)ccc21` [Compound 53, 6-((2-hydroxyethyl)amino)-3-(4-methylthiazol-5-yl)-2-(pyridin-3-yl)-1H-inden-1-one], for which the EC50 in experiment [1] and in experiment [2] was above 250 µM in each case.
Turning to `O=C1C(c2cccnc2)=C(c2ccccc2)c2ccccc21` [Compound 7, 3-phenyl-2-(pyridin-3-yl)-1H-inden-1-one], the figures for the EC50 in experiment [1] and in experiment [2] were above 250 µM and below 20 µM, respectively.
For `Cc1ncsc1C1=C(c2ccc(N3CCN(C)CC3)cc2)C(=O)c2cc(OCCCc3ccccc3)ccc21` [Compound 76, 2-(4-(4-methylpiperazin-1-yl)phenyl)-3-(4-methylthiazol-5-yl)-6-(3-phenylpropoxy)-1H-inden-1-one], the EC50 in experiment [1] and in experiment [2] was below 20 µM each time.
As to `Cc1ncsc1C1=C(c2cccnc2)C(=O)c2cc(NCC3CCOCC3)ccc21` [Compound 52, 3-(4-methylthiazol-5-yl)-2-(pyridin-3-yl)-6-(((tetrahydro-2H-pyran-4-yl)methyl)amino)-1H-inden-1-one], the EC50 in experiment [1] and in experiment [2] was above 250 µM in each case.
Turning to `Cc1ncsc1C1=C(c2ccc(CN3CCN(C)CC3)cc2)C(=O)c2ccccc21` [Compound 86, 2-(4-((4-methylpiperazin-1-yl)methyl)phenyl)-3-(4-methylthiazol-5-yl)-1H-inden-1-one], the figures for the EC50 in experiment [1] and in experiment [2] were below 20 µM and 20 to 100 µM, respectively.
For the compound `CCCOc1ccc2c(c1)C(=O)C(c1ccccc1)=C2c1ccccc1` [Compound 3, 2,3-diphenyl-6-propoxy-1H-inden-1-one], the EC50 in experiment [1] is above 250 µM; in experiment [2], below 20 µM.
Consider `Cc1ncsc1C1=C(c2cccnc2)C(=O)c2cc(NC(=O)CCc3ccccc3)ccc21` [Compound 60, N-(3-(4-methylthiazol-5-yl)-1-oxo-2-(pyridin-3-yl)-1H-inden-6-yl)-3-phenylpropanamide], for which the results for the EC50 in experiment [1] and in experiment [2] were below 20 µM and 20 to 100 µM, respectively.
With `CN1CCN(c2cccc(C3=C(c4ccccc4)c4ccccc4C3=O)c2)CC1` [Compound 91, 2-(3-(4-methylpiperazin-1-yl)phenyl)-3-phenyl-1H-inden-1-one], the values for the EC50 in experiment [1] and in experiment [2] were above 250 µM and below 20 µM, respectively.
On to `O=C1C(c2ccccc2)=C(c2ccc(N3CCOCC3)cc2)c2ccccc21` [Compound 14, 3-(4-morpholinophenyl)-2-phenyl-1H-inden-1-one], for which the EC50 is above 250 µM in experiment [1] and below 20 µM in experiment [2].
For `O=C1C(c2ccccc2)=C(c2cccnc2)c2ccccc21` [Compound 9, 2-phenyl-3-(pyridin-3-yl)-1H-inden-1-one], the EC50 in experiment [1] and in experiment [2] was 20 to 100 µM each time.
As for `O=C1C(c2ccccc2)=C(c2ccccc2)c2ccc(N3CCOCC3)cc21` [Compound 12, 6-morpholino-2,3-diphenyl-1H-inden-1-one], the EC50 in experiment [1] is above 250 µM; in experiment [2] it was below 20 µM.
In the same order, the values of `O=C1C(c2cccnc2)=C(c2cn[nH]c2)c2ccc(OCCCc3ccccc3)cc21` [Compound 43, 6-(3-phenylpropoxy)-3-(1H-pyrazol-4-yl)-2-(pyridin-3-yl)-1H-inden-1-one] are above 250 µM and above 250 µM.
With `Cc1ncsc1C1=C(c2ccc(N3CCN(C)CC3)cc2)C(=O)c2ccccc21` [Compound 85, 2-(4-(4-methylpiperazin-1-yl)phenyl)-3-(4-methylthiazol-5-yl)-1H-inden-1-one], the EC50 in experiment [1] and in experiment [2] was above 250 µM throughout.
As for `O=C1C(c2cncs2)=C(c2cncs2)c2ccc(OCCCc3ccccc3)cc21` [Compound 83, 6-(3-phenylpropoxy)-2,3-di(thiazol-5-yl)-1H-inden-1-one], the EC50 in experiment [1] and in experiment [2] was below 20 µM throughout. Further, the “disaggregation effect for tau protein aggregates” value in experiment [1] (setting [3]) was “remarkably excellent disaggregation effect”. Moreover, the “disaggregation effect for amyloid-beta protein aggregates” value in experiment [2] (setting [3]) is listed as “remarkably excellent disaggregation effect”.
In the case of `O=C1C(c2cccc(N3CCOCC3)c2)=C(c2ccccc2)c2ccccc21` [Compound 18, 2-(3-morpholinophenyl)-3-phenyl-1H-inden-1-one], the results for the EC50 in experiment [1] and in experiment [2] were above 250 µM and below 20 µM, respectively.
The corresponding values for `Cc1ncsc1C1=C(c2ccccn2)C(=O)c2cc(OCCCc3ccccc3)ccc21` [Compound 40, 3-(4-methylthiazol-5-yl)-6-(3-phenylpropoxy)-2-(pyridin-2-yl)-1H-inden-1-one] are above 250 µM and below 20 µM.
The corresponding values for `Cc1ncsc1C1=C(c2ccc(CN3CCN(C)CC3)cc2)c2ccccc2C1=O` [Compound 92, 3-(4-((4-methylpiperazin-1-yl)methyl)phenyl)-2-(4-methylthiazol-5-yl)-1H-inden-1-one] are 20 to 100 µM and 20 to 100 µM.
The corresponding values for `Cc1ncsc1C1=C(c2cnn(C)n2)C(=O)c2cc(OCCCc3ccccc3)ccc21` [Compound 33, 2-(2-methyl-2H-1,2,3-triazol-4-yl)-3-(4-methylthiazol-5-yl)-6-(3-phenylpropoxy)-1H-inden-1-one] are below 20 µM and below 20 µM.
Take `Cc1ncsc1C1=C(c2cccnc2)C(=O)c2cc(N3CCN(C)CC3)ccc21` [Compound 64, 6-(4-methylpiperazin-1-yl)-3-(4-methylthiazol-5-yl)-2-(pyridin-3-yl)-1H-inden-1-one]: the values for the EC50 in experiment [1] and in experiment [2] were 100 to 250 µM and 20 to 100 µM, respectively.
In the same order, the values of `Cc1cc(N2CCN(C)CC2)cc2c1C(c1ccccc1)=C(c1ccccc1)C2=O` [Compound 71, 4-methyl-6-(4-methylpiperazin-1-yl)-2,3-diphenyl-1H-inden-1-one] are 100 to 250 µM and 20 to 100 µM.
In the same order, the values of `Cc1ncsc1C1=C(c2cccnc2)C(=O)c2cc(N)ccc21` [Compound 59, 6-amino-3-(4-methylthiazol-5-yl)-2-(pyridin-3-yl)-1H-inden-1-one] are 20 to 100 µM and 20 to 100 µM.
Turning to `Cc1ncsc1C1=C(c2cccc(CN3CCOCC3)c2)C(=O)c2ccccc21` [Compound 89, 3-(4-methylthiazol-5-yl)-2-(3-(morpholinomethyl)phenyl)-1H-inden-1-one], the figures for the EC50 in experiment [1] and in experiment [2] were 100 to 250 µM and 20 to 100 µM, respectively.
In the same order, the values of `CCOC(=O)c1ccccc1C1=C(c2ccccc2C)c2ccccc2C1=O` [Compound 99-7, ethyl 2-(1-oxo-3-(o-tolyl)-1H-inden-2-yl)benzoate] are above 250 µM and 100 to 250 µM.
As to `Cc1ncsc1C1=C(c2cccnc2)C(=O)c2cc(NC(=O)C3CCOCC3)ccc21` [Compound 61, N-(3-(4-methylthiazol-5-yl)-1-oxo-2-(pyridin-3-yl)-1H-inden-6-yl)tetrahydro-2H-pyran-4-carboxamide], the EC50 in experiment [1] and in experiment [2] was above 250 µM in each case.
For `Cc1ncsc1C1=C(c2cccc(CN3CCN(C)CC3)c2)c2ccccc2C1=O` [Compound 93, 3-(3-((4-methylpiperazin-1-yl)methyl)phenyl)-2-(4-methylthiazol-5-yl)-1H-inden-1-one], the EC50 in experiment [1] and in experiment [2] was 20 to 100 µM in each case.
For `COc1ccc2c(c1)C(=O)C(c1ccccc1)=C2c1ccccc1` [Compound 2, 6-methoxy-2,3-diphenyl-1H-inden-1-one], the EC50 was above 250 µM in experiment [1] and below 20 µM in experiment [2].

Values taken from patent EP4745117A1, “NOVEL INDENONE DERIVATIVE AND USE THEREOF” (Amyloid Solution Inc., priority 2023, dated 2025).
